# Source: article PMC5218480 (PLoS ONE, 2017)
# System: MV-4-11 cells
# Assay: Gene expression microarray analysis (Affymetrix PrimeView) and GSEA
# Type: cell-based, human
# Parameters: RFU PODN (11730768_x_at) / Fold change /veh PODN (11730768_x_at) / RFU LINC00158 (11744669_a_at) / Fold change /veh LINC00158 (11744669_a_at) / RFU DUSP10 (11751237_a_at) / Fold change /veh DUSP10 (11751237_a_at) / RFU ID3 (11757404_x_at) / Fold change /veh ID3 (11757404_x_at) / RFU PLEKHG5 (11737974_s_at) / Fold change /veh PLEKHG5 (11737974_s_at) / RFU LRRC4B (11730491_at) / Fold change /veh LRRC4B (11730491_at) / RFU GIMAP4 (11747438_a_at) / Fold change /veh GIMAP4 (11747438_a_at) / RFU KRT8 (11758183_x_at) / Fold change /veh KRT8 (11758183_x_at) / RFU CNN1 (11734310_a_at) / Fold change /veh CNN1 (11734310_a_at) / RFU VPS37D (11726825_at) / Fold change /veh VPS37D (11726825_at) / RFU C10orf10 (11716522_x_at) / Fold change /veh C10orf10 (11716522_x_at) / RFU KIR2DL2 /// KIR2DL4 /// KIR2DL5A /// KIR2DL5B /// KIR2DS1 /// KIR2DS2 /// KIR2DS3 /// KIR2DS4 /// KIR3DL3 /// KIR3DL3 /// KIR3DS1 (11738374_at) / Fold change /veh KIR2DL2 /// KIR2DL4 /// KIR2DL5A /// KIR2DL5B /// KIR2DS1 /// KIR2DS2 /// KIR2DS3 /// KIR2DS4 /// KIR3DL3 /// KIR3DL3 /// KIR3DS1 (11738374_at) / RFU C1QL1 (11718748_at) / Fold change /veh C1QL1 (11718748_at) / RFU TMPRSS4 (11747572_a_at) / Fold change /veh TMPRSS4 (11747572_a_at) / RFU HAMP (11756126_x_at) / Fold change /veh HAMP (11756126_x_at) / RFU RNFT2 (11725882_a_at) / Fold change /veh RNFT2 (11725882_a_at) / RFU NR4A2 (11747474_a_at) / Fold change /veh NR4A2 (11747474_a_at) / RFU ABCC12 (11746883_a_at) / Fold change /veh ABCC12 (11746883_a_at) / RFU TMEM136 (11760407_x_at) / Fold change /veh TMEM136 (11760407_x_at) / RFU CLDN22 /// WWC2 (11732394_at) / Fold change /veh CLDN22 /// WWC2 (11732394_at) / RFU HLA-DPB1 (11760878_x_at) / Fold change /veh HLA-DPB1 (11760878_x_at) / RFU SPINT1 (11716480_a_at) / Fold change /veh SPINT1 (11716480_a_at) / RFU GAP43 (11754022_s_at) / Fold change /veh GAP43 (11754022_s_at) / RFU A4GNT (11735810_at) / Fold change /veh A4GNT (11735810_at) / RFU PRB3 (11715151_x_at) / Fold change /veh PRB3 (11715151_x_at) / RFU TUBB4B (11761932_at) / Fold change /veh TUBB4B (11761932_at) / RFU CAPN14 (11732068_a_at) / Fold change /veh CAPN14 (11732068_a_at) / RFU TMCC2 (11721928_a_at) / Fold change /veh TMCC2 (11721928_a_at) / RFU IRGQ (11745062_a_at) / Fold change /veh IRGQ (11745062_a_at) / RFU FAM174B (11720279_a_at) / Fold change /veh FAM174B (11720279_a_at) / RFU TMPRSS4 (11748680_a_at) / Fold change /veh TMPRSS4 (11748680_a_at) / RFU FAM212B (11763350_a_at) / Fold change /veh FAM212B (11763350_a_at) / RFU PLEKHG5 (11743358_a_at) / Fold change /veh PLEKHG5 (11743358_a_at) / RFU ZSCAN30 (11745921_a_at) / Fold change /veh ZSCAN30 (11745921_a_at) / RFU CMKLR1 (11741424_a_at) / Fold change /veh CMKLR1 (11741424_a_at) / RFU LOC101060620 /// MAPK8IP1 (11723275_at) / Fold change /veh LOC101060620 /// MAPK8IP1 (11723275_at) / RFU SPTSSB (11747773_x_at) / Fold change /veh SPTSSB (11747773_x_at) / RFU PRSS12 (11739890_at) / Fold change /veh PRSS12 (11739890_at) / RFU BIN1 (11741810_x_at) / Fold change /veh BIN1 (11741810_x_at) / RFU WNT11 (11732464_a_at) / Fold change /veh WNT11 (11732464_a_at) / RFU C10orf10 (11716521_a_at) / Fold change /veh C10orf10 (11716521_a_at) / RFU C5orf56 (11738089_at) / Fold change /veh C5orf56 (11738089_at) / RFU CYB561 (11721691_x_at) / Fold change /veh CYB561 (11721691_x_at) / RFU ANKRD19P (11752326_a_at) / Fold change /veh ANKRD19P (11752326_a_at) / RFU OR2T12 /// OR2T33 /// OR2T8 (11738714_s_at) / Fold change /veh OR2T12 /// OR2T33 /// OR2T8 (11738714_s_at) / RFU VCAN (11748164_a_at) / Fold change /veh VCAN (11748164_a_at) / RFU JSRP1 (11732532_at) / Fold change /veh JSRP1 (11732532_at) / RFU KRTAP10-11 (11738290_x_at) / Fold change /veh KRTAP10-11 (11738290_x_at) / RFU MYO3A (11730013_a_at) / Fold change /veh MYO3A (11730013_a_at) / RFU EBF3 (11725865_a_at) / Fold change /veh EBF3 (11725865_a_at) / RFU CAMK2N1 (11719241_x_at) / Fold change /veh CAMK2N1 (11719241_x_at) / RFU C5orf56 (11738088_a_at) / Fold change /veh C5orf56 (11738088_a_at) / RFU OLFML3 (11715873_a_at) / Fold change /veh OLFML3 (11715873_a_at) / RFU LOC100653217 /// NTM (11731650_a_at) / Fold change /veh LOC100653217 /// NTM (11731650_a_at) / RFU MAPK11 (11762145_a_at) / Fold change /veh MAPK11 (11762145_a_at) / RFU FIZ1 (11724087_x_at) / Fold change /veh FIZ1 (11724087_x_at) / RFU OASL (11726364_x_at) / Fold change /veh OASL (11726364_x_at) / RFU SOX15 (11748057_x_at) / Fold change /veh SOX15 (11748057_x_at) / RFU CD79A (11719716_a_at) / Fold change /veh CD79A (11719716_a_at) / RFU HIST1H1D (11736915_at) / Fold change /veh HIST1H1D (11736915_at) / RFU CASKIN2 (11723855_a_at) / Fold change /veh CASKIN2 (11723855_a_at) / RFU LOC730098 (11760151_x_at) / Fold change /veh LOC730098 (11760151_x_at) / RFU OR4N2 (11742367_at) / Fold change /veh OR4N2 (11742367_at) / RFU PRRT2 (11749266_a_at) / Fold change /veh PRRT2 (11749266_a_at) / RFU SNX32 (11753110_a_at) / Fold change /veh SNX32 (11753110_a_at) / RFU CDHR5 (11726645_a_at) / Fold change /veh CDHR5 (11726645_a_at) / RFU RCAN1 (11760418_a_at) / Fold change /veh RCAN1 (11760418_a_at) / RFU FAM167A (11723789_a_at) / Fold change /veh FAM167A (11723789_a_at) / RFU FAM26E (11764081_at) / Fold change /veh FAM26E (11764081_at) / RFU ISYNA1 (11749810_s_at) / Fold change /veh ISYNA1 (11749810_s_at) / RFU ACY1 (11761880_at) / Fold change /veh ACY1 (11761880_at) / RFU 11764098_at / Fold change /veh 11764098_at / RFU SAMD14 (11745864_x_at) / Fold change /veh SAMD14 (11745864_x_at) / RFU NPB (11741838_a_at) / Fold change /veh NPB (11741838_a_at) / RFU TMPRSS6 (11731388_a_at) / Fold change /veh TMPRSS6 (11731388_a_at) / RFU KRTAP10-2 (11738614_at) / Fold change /veh KRTAP10-2 (11738614_at) / RFU ARHGAP8 /// PRR5-ARHGAP8 (11727945_x_at) / Fold change /veh ARHGAP8 /// PRR5-ARHGAP8 (11727945_x_at) / RFU KRTAP5-7 /// NADSYN1 (11734609_at) / Fold change /veh KRTAP5-7 /// NADSYN1 (11734609_at) / RFU RASL12 (11751679_a_at) / Fold change /veh RASL12 (11751679_a_at) / RFU CDKN2B (11736163_a_at) / Fold change /veh CDKN2B (11736163_a_at) / RFU PRF1 (11729649_at) / Fold change /veh PRF1 (11729649_at) / RFU, ZNF638 /// ZNF638-IT1 / Fold change vs veh, ZNF638 /// ZNF638-IT1 / RFU, PANK3 / Fold change vs veh, PANK3 / RFU, SH3YL1 / Fold change vs veh, SH3YL1 / RFU, ZEB2 / Fold change vs veh, ZEB2 / RFU, NRIP1 / Fold change vs veh, NRIP1 / RFU, PTTG1IP / Fold change vs veh, PTTG1IP / RFU, CAPN2 / Fold change vs veh, CAPN2 / RFU, MED14 / Fold change vs veh, MED14 / RFU, SNORA58 / Fold change vs veh, SNORA58 / RFU, C1orf63 / Fold change vs veh, C1orf63 / RFU, LRRFIP1 / Fold change vs veh, LRRFIP1 / RFU, NDUFAF7 / Fold change vs veh, NDUFAF7 / RFU, SLC12A2 / Fold change vs veh, SLC12A2 / RFU, IBTK / Fold change vs veh, IBTK / RFU, ESF1 / Fold change vs veh, ESF1 / Fold change vs veh, TMEM50B / RFU, TAOK1 / Fold change vs veh, TAOK1 / RFU, ACBD3 / Fold change vs veh, ACBD3 / RFU, TMA16 / Fold change vs veh, TMA16 / RFU, RWDD3 / Fold change vs veh, RWDD3 / RFU, BCAT1 / Fold change vs veh, BCAT1 / RFU, EDEM3 / Fold change vs veh, EDEM3 / RFU, TMEM33 / Fold change vs veh, TMEM33 / RFU, WDR75 / Fold change vs veh, WDR75 / RFU, AHCTF1 / Fold change vs veh, AHCTF1 / RFU, TFRC / Fold change vs veh, TFRC / RFU, ZDHHC17 / Fold change vs veh, ZDHHC17 / RFU, NOM1 / Fold change vs veh, NOM1 / RFU, ARL8B / Fold change vs veh, ARL8B / RFU, ZBTB11 / Fold change vs veh, ZBTB11 / RFU, TAMM41 / Fold change vs veh, TAMM41 / RFU, KIAA1704 /// LOC100996395 / Fold change vs veh, KIAA1704 /// LOC100996395 / RFU, ING1 / Fold change vs veh, ING1 / RFU, TRMT61B / Fold change vs veh, TRMT61B / RFU, FUBP3 / Fold change vs veh, FUBP3 / RFU, TP53 / Fold change vs veh, TP53 / RFU, TNKS2 / Fold change vs veh, TNKS2 / RFU, ZFP14 / Fold change vs veh, ZFP14 / RFU, ACTR2 / Fold change vs veh, ACTR2 / RFU, PPP3R1 / Fold change vs veh, PPP3R1 / RFU, PIK3R1 / Fold change vs veh, PIK3R1 / RFU, HNRNPA1 / Fold change vs veh, HNRNPA1 / RFU, RNF170 / Fold change vs veh, RNF170 / RFU, ZNF28 / Fold change vs veh, ZNF28 / RFU, RNGTT / Fold change vs veh, RNGTT / RFU, OGT / Fold change vs veh, OGT / RFU, BRD1 / Fold change vs veh, BRD1 / RFU, MARS / Fold change vs veh, MARS / RFU, ZNF655 / Fold change vs veh, ZNF655 / RFU, FAHD1 / Fold change vs veh, FAHD1 / RFU, BDP1 / Fold change vs veh, BDP1 / RFU, LRRCC1 / Fold change vs veh, LRRCC1 / RFU, ARID1A / Fold change vs veh, ARID1A / RFU, ZNF146 / Fold change vs veh, ZNF146 / RFU, ZNF330 / Fold change vs veh, ZNF330 / RFU, GPN3 / Fold change vs veh, GPN3 / RFU, C9orf123 / Fold change vs veh, C9orf123 / RFU, N4BP2L2 / Fold change vs veh, N4BP2L2 / RFU, ARFIP1 / Fold change vs veh, ARFIP1 / RFU, FAM179B / Fold change vs veh, FAM179B / RFU, BCL10 / Fold change vs veh, BCL10 / RFU, UHRF1BP1L / Fold change vs veh, UHRF1BP1L / RFU, BET1 / Fold change vs veh, BET1 / RFU, CNOT2 / Fold change vs veh, CNOT2 / RFU, ZNF268 / Fold change vs veh, ZNF268 / Fold change vs veh, ZNF507 / RFU, DGCR2 / Fold change vs veh, DGCR2 / RFU, WDSUB1 / Fold change vs veh, WDSUB1 / Fold change vs veh, HSP90B1 /// MIR3652 / RFU, ADSS / Fold change vs veh, ADSS / RFU, GK / Fold change vs veh, GK / RFU, ZNF148 / Fold change vs veh, ZNF148 / RFU, TAF9 / Fold change vs veh, TAF9 / RFU, SLC1A5 / Fold change vs veh, SLC1A5 / RFU, SLMO2 / Fold change vs veh, SLMO2 / RFU, ABCC4 / Fold change vs veh, ABCC4 / RFU, LOC101060439 /// RAP1B / Fold change vs veh, LOC101060439 /// RAP1B / RFU, RFX7 / Fold change vs veh, RFX7 / RFU, GTPBP10 / Fold change vs veh, GTPBP10 / RFU, CNEP1R1 / Fold change vs veh, CNEP1R1 / RFU, BIVM-ERCC5 /// ERCC5 / Fold change vs veh, BIVM-ERCC5 /// ERCC5 / RFU, ILF3 / Fold change vs veh, ILF3 / RFU 11762660_at / Fold change /veh 11762660_at / RFU VCAN (11757783_s_at) / Fold change /veh VCAN (11757783_s_at) / RFU DDX43 (11728927_at) / Fold change /veh DDX43 (11728927_at) / RFU KRT8 (11758188_x_at) / Fold change /veh KRT8 (11758188_x_at) / RFU NKD1 (11759106_at) / Fold change /veh NKD1 (11759106_at) / RFU SRD5A1 (11742802_a_at) / Fold change /veh SRD5A1 (11742802_a_at) / RFU TPSAB1 /// TPSB2 (11721975_s_at) / Fold change /veh TPSAB1 /// TPSB2 (11721975_s_at) / RFU GSTM3 (11746129_a_at) / Fold change /veh GSTM3 (11746129_a_at) / RFU IL23R (11737362_x_at) / Fold change /veh IL23R (11737362_x_at) / RFU TMEM51 (11727254_a_at) / Fold change /veh TMEM51 (11727254_a_at) / RFU PIWIL2 (11732686_x_at) / Fold change /veh PIWIL2 (11732686_x_at) / RFU ORM1 (11744905_x_at) / Fold change /veh ORM1 (11744905_x_at) / RFU CCDC152 (11743942_at) / Fold change /veh CCDC152 (11743942_at) / RFU ECM1 (11717891_a_at) / Fold change /veh ECM1 (11717891_a_at) / RFU IL23R (11748794_a_at) / Fold change /veh IL23R (11748794_a_at) / RFU TNFAIP8L3 (11732012_x_at) / Fold change /veh TNFAIP8L3 (11732012_x_at) / RFU MBOAT4 (11741988_at) / Fold change /veh MBOAT4 (11741988_at) / RFU 11764193_at / Fold change /veh 11764193_at / RFU TMEM53 (11763286_at) / Fold change /veh TMEM53 (11763286_at) / RFU MAGEB2 (11727129_at) / Fold change /veh MAGEB2 (11727129_at) / RFU TMEM200A (11744735_a_at) / Fold change /veh TMEM200A (11744735_a_at) / RFU CCDC152 (11751479_a_at) / Fold change /veh CCDC152 (11751479_a_at) / RFU FAM211A (11726209_a_at) / Fold change /veh FAM211A (11726209_a_at) / RFU RGS16 (11746705_a_at) / Fold change /veh RGS16 (11746705_a_at) / RFU VCAN (11755009_s_at) / Fold change /veh VCAN (11755009_s_at) / RFU RHOB (11743442_s_at) / Fold change /veh RHOB (11743442_s_at) / RFU RGS16 (11720943_a_at) / Fold change /veh RGS16 (11720943_a_at) / RFU RGS16 (11720944_at) / Fold change /veh RGS16 (11720944_at) / RFU, VPS4B / Fold change vs veh, VPS4B / RFU, CREB1 / Fold change vs veh, CREB1 / RFU, DNAJC13 / Fold change vs veh, DNAJC13 / RFU, GNAQ / Fold change vs veh, GNAQ / RFU, CDK5R1 / Fold change vs veh, CDK5R1 / RFU, ZRANB3 / Fold change vs veh, ZRANB3 / RFU, CUL4A / Fold change vs veh, CUL4A / RFU, CCNY / Fold change vs veh, CCNY / RFU, UFL1 / Fold change vs veh, UFL1 / RFU, COG3 / Fold change vs veh, COG3 / RFU, DIAPH2 / Fold change vs veh, DIAPH2 / RFU, SKA2 / Fold change vs veh, SKA2 / RFU, AFF3 / Fold change vs veh, AFF3 / RFU, LMF1 / Fold change vs veh, LMF1 / RFU, IPO11 / Fold change vs veh, IPO11 / RFU, DFFB / Fold change vs veh, DFFB / RFU, FOXP1 / Fold change vs veh, FOXP1 / RFU, CARD8 / Fold change vs veh, CARD8 / RFU, STRN3 / Fold change vs veh, STRN3 / RFU, ADK / Fold change vs veh, ADK / RFU, RASSF2 / Fold change vs veh, RASSF2 / RFU, WIPF1 / Fold change vs veh, WIPF1 / RFU, LARP1B / Fold change vs veh, LARP1B / RFU, RASA1 / Fold change vs veh, RASA1 / RFU, RB1 / Fold change vs veh, RB1 / RFU, PPFIA1 / Fold change vs veh, PPFIA1 / RFU, MAT2A / Fold change vs veh, MAT2A / RFU, CCT5 / Fold change vs veh, CCT5 / RFU, WDR92 / Fold change vs veh, WDR92 / RFU, CUX1 / Fold change vs veh, CUX1 / RFU, TTC7A / Fold change vs veh, TTC7A / RFU, TMEM135 / Fold change vs veh, TMEM135 / RFU, DEPTOR / Fold change vs veh, DEPTOR / RFU, CPM / Fold change vs veh, CPM / RFU, DNAJB6 / Fold change vs veh, DNAJB6 / RFU, CACNA2D3 / Fold change vs veh, CACNA2D3 / RFU, DTX4 / Fold change vs veh, DTX4 / RFU, TFCP2 / Fold change vs veh, TFCP2 / RFU, GMCL1 /// GMCL1P1 / Fold change vs veh, GMCL1 /// GMCL1P1 / RFU, AEBP2 / Fold change vs veh, AEBP2 / RFU, SNHG1 /// SNORD22 /// SNORD25 /// SNORD26 /// SNORD27 /// SNORD28 /// SNORD29 /// SNORD31 / Fold change vs veh, SNHG1 /// SNORD22 /// SNORD25 /// SNORD26 /// SNORD27 /// SNORD28 /// SNORD29 /// SNORD31 / Fold change (Aza/veh), C12orf56 (ProbeSet 11735607_a_at) / Fold change (ACY-1035/veh), C12orf56 (ProbeSet 11735607_a_at) / Fold change (Aza/veh), FGFR1OP (ProbeSet 11751329_s_at) / Fold change (ACY-1035/veh), FGFR1OP (ProbeSet 11751329_s_at) / Fold change (Aza/veh), VPS36 (ProbeSet 11739960_a_at) / Fold change (ACY-1035/veh), VPS36 (ProbeSet 11739960_a_at) / RFU SYPL1 (11715823_x_at) / Fold change /veh SYPL1 (11715823_x_at) / RFU IGFBP7 (11715501_s_at) / Fold change /veh IGFBP7 (11715501_s_at) / RFU REEP3 (11722064_at) / Fold change /veh REEP3 (11722064_at) / RFU IGLL1 (11728026_x_at) / Fold change /veh IGLL1 (11728026_x_at): dose or concentration left out as unconfirmed
# Details: gene FGFR1OP; ACY-1035 vs DMSO; LIST F
smiles,measurement,value
Nc1ccc(-c2cccs2)cc1NC(=O)c1ccc2c(c1)cc(C1CC1)n2CCN1CCOCC1 [ACY-1035],"Fold change (ACY-1035/veh), FGFR1OP (ProbeSet 11751329_s_at)",0.57
